Results: US5326774A, “Pharmaceutical preparation of antihypertensive, antianginal, antiarrhythmic and antiglaucomic action” (priority 1992, dated 1994)
Values joined by “and” are separate entries in the source; they are usually repeats but may differ in a detail not shown here. Equal values may be shown once. Read-outs that look alike come from different tables or passages of the source.

How the values were obtained:
β1-adrenoceptor = target: T1, β1-adrenoceptor (Rattus norvegicus, UniProt P18090); assay: Inhibition of isadrin's positive chronotropic effect, i.v., anesthetized rats; assay type: in vivo; conditions: rat, iv, read-out: Dosage inhibiting isadrin's positive chronotropism by 50% (ED50)
T1 construct: positive chronotropic and depressor effects in the anesthetized rats; from tissue; host or cells: whole living rat (heart rate response to isadrin); endogenous receptor

[1] = test system: electrically induced ventricular fibrillation; assay: Threshold of electrically induced ventricular fibrillation in anesthetized cats; assay type: in vivo, cat
in vivo = conditions: mouse, iv
Excerpt: LD50 values were estimated by using the Litchfield-Wilckoxon method.

β2-adrenoceptor = target: T2, β2-adrenoceptor (Rattus norvegicus, UniProt P10608); assay: Inhibition of isadrin's depressor effect, i.v., anesthetized rats; assay type: in vivo; conditions: rat, iv, read-out: Dosage inhibiting isadrin's depressor effect by 50%, ED50
T2 construct: positive chronotropic and depressor effects in the anesthetized rats; from tissue; host or cells: whole living rat (blood pressure response to isadrin); endogenous receptor

arterial pressure [2] = assay: Arterial pressure and heart rate in conscious normotensive rats, oral; assay type: in vivo, rat; conditions: 150 mg/kg
ventricular fibrillation = assay: Ventricular fibrillation during acute coronary occlusion and reperfusion in anesthetized dogs; assay type: in vivo, dog; conditions: for Ventricular fibrillation during acute occlusion and reperfusion: single animals
coronary vessels = assay: Coronary vessel dilatation and myocardial perfusion in anesthetized rats; assay type: in vivo, rat; conditions: 0.1 mg/kg i.v. (compound of the invention)
Excerpt: The coronarodilative effect of the compound according to the invention is not associated with its β- and α-adrenoceptor blocking activity and its influence on the systemic perfusion pressure and pump function of the heart. […]

arterial pressure [3] = assay: Antihypertensive effect in rats with renovascular hypertension; assay type: in vivo, rat; conditions: same conditions
Experimental: . In rats suffering from renovascular hypertension the compound of the invention in the dosage of 10 mg/kg (injected intramuscularly) lowered with confidence the arterial pressure (from 137±3 to 117±5 mm of Hg column) 30 minutes after being administered. The 2-week course of the administration of the compound according to the invention (10 mg/kg 1 time a day) caused the antihypertensive effect to be enhanced. By the end of the second week the arterial pressure was 110±8.6 mm Hg. […]

[4] = test system: intraocular tension of intact rabbit eyes; conditions: 1% solution
Experimental: The effects of the compound according to the invention on intraocular tension and hydrodynamics of the eye was tested in 28 chinchilla rabbits with body weight of 2.5-3.5 kg.
The left animal eyes were control wherein using the same procedure a diluent was instilled.

[5] = test system: strophantin-induced arrhythmia; assay type: in vivo, guinea pig
intraocular tension = assay: Clinical test in 108 patients with glaucoma resistant to conventional therapy; conditions: human, in vivo
Experimental: The preparation of the invention was tested on 108 patients with different cases of glaucoma resistant to the conventional antiglaucomic therapy. […] A long-term resetting for more than 1 month of intraocular tension was attained in 76% of patients.

[6] = test system: mesaton-initiated pressor effect; assay: Mesaton-initiated pressor effect in anesthetized rats; assay type: in vivo, rat; conditions: for effect on mesaton pressor effect: 3 mg/kg i.v.; for suppression of mesaton pressor effect: 10 mg/kg i.v., average
vascular regions [7] = assay: Labeled microsphere method in rats with renovascular hypertension; assay type: in vivo, rat
arterial pressure [8] = assay: Hypotensive activity in anesthetized cats, i.v.; assay type: in vivo, cat
vascular regions [9] = assay: Labeled microsphere method: cardiac output distribution in normotensive rats; assay type: in vivo, rat
[10] = β-adrenoceptor blocking doses, normotensive rats

T2 sequence (P10608 whole entry): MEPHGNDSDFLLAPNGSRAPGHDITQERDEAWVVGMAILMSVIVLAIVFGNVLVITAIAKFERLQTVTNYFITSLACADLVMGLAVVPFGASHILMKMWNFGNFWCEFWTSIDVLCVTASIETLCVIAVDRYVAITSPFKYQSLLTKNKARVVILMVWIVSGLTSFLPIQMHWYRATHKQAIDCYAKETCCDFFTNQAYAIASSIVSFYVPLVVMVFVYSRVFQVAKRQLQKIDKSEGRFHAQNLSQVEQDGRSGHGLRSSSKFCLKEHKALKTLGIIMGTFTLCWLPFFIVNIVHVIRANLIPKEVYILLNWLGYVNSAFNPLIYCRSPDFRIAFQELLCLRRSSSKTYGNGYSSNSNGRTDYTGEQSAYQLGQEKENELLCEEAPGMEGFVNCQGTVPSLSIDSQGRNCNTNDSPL
T1 sequence (P18090 whole entry): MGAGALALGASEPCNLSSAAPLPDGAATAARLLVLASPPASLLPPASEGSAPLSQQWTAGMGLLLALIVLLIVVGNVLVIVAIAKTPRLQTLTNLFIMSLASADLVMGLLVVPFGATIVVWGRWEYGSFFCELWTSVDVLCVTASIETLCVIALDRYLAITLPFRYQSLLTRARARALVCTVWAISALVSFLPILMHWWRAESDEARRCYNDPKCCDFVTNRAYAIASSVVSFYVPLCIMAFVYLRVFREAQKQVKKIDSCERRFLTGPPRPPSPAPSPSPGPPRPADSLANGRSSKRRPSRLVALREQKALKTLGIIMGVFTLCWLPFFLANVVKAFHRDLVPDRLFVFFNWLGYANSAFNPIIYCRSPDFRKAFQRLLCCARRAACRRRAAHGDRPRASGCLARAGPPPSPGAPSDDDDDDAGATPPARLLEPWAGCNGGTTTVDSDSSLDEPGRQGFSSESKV

Structure (SMILES): CC(C)NCC(O)COc1cccc2[nH]ccc12 (stereo not shown) [Pindolol, pindolol, reference compound]
- ED50 (β1-adrenoceptor): 0.025 ± 0.002 mg/kg
- threshold of electrically induced ventricular fibrillation ([1]; dosages tested): no effect
- LD50 at 72 h (in vivo): 29 mg/kg
- ED50 (β2-adrenoceptor): 0.02 ± 0.002 mg/kg

Structure (SMILES): CC(C)NCC(O)COc1cccc2ccccc12 (stereo not shown) [Propranolol, propranolol]
- arterial pressure (arterial pressure [2]): small influence on arterial pressure
- heart rate (arterial pressure [2]): decreased the heart rate slightly
- prevention of ventricular fibrillation in temporary coronary occlusion (ventricular fibrillation; 1 mg/kg i.v.): the same effect
- Ventricular fibrillation during acute occlusion and reperfusion (ventricular fibrillation; 10 min after injection): R
- Ventricular fibrillation during acute occlusion and reperfusion (ventricular fibrillation; 60 min after injection): R
- coronary vessel dilatation / myocardial perfusion (coronary vessels): unfavourable effect on transmural, myocardial perfusion
- antihypertensive efficacy (arterial pressure [3]): low efficacy
- threshold of electrically induced ventricular fibrillation ([1]; 5 mg/kg): increased considerably this threshold
- Average decrease of intraocular tension OD, M ± m ([4]; 2 hours): 2.6 ± 0.3 ram of Hg column
- Average decrease of intraocular tension OD, M ± m ([4]; 4 hours): 2.2 ± 0.2 ram of Hg column
- Arrhythmogenic dose of strophantin as compared with control: extrasystoles ([5]; guinea pig, in vivo): 92.7% and 110%
- Dose of strophantin as compared with control: ventricular fibrillation ([5]; guinea pig, in vivo): 97.9% and 106.3% and 120%

Structure (SMILES): CC(C)(C)NC[C@H](O)COc1nsnc1N1CCOCC1 [thymolol]
- mechanism of ocular hypotensive effect (intraocular tension): associated not only with inhibition of intraocular liquid secretion, but with improvement of its outflow

Structure (SMILES): C=CCOc1ccccc1OCC(O)CNC(C)C (stereo not shown) [Oxprenolol, oxprenolol]
- ED50 (β1-adrenoceptor): 0.26 ± 0.025 mg/kg
- threshold of electrically induced ventricular fibrillation ([1]; 1 mg/kg): did not change
- threshold of electrically induced ventricular fibrillation ([1]; 5 mg/kg): increased considerably this threshold
- effect on mesaton pressor effect [6]: did not change
- suppression of mesaton pressor effect [6]: 10%
- Arrhythmogenic dose of strophantin as compared with control: extrasystoles ([5]; guinea pig, in vivo): 105% and 120% and 110%
- Dose of strophantin as compared with control: ventricular fibrillation ([5]; guinea pig, in vivo): 101% and 110% and 121%
- Lethal dose of strophantin as compared with control: animal death ([5]; guinea pig, in vivo): 102% and 112%
- ED50 (β2-adrenoceptor): 0.055 ± 0.005 mg/kg

Structure (SMILES): CC(CCc1ccccc1)NCC(O)c1ccc(O)c(C(N)=O)c1 (stereo not shown) [Labetalol, labetalol]
- vasodilating properties (vascular regions [7]): shows vasodilating properties
- ED50 (β1-adrenoceptor): 0.7 ± 0.05 mg/kg
- coronary vessel dilatation / myocardial perfusion (coronary vessels): did not lead to the dilatation of coronary vessels
- threshold of electrically induced ventricular fibrillation ([1]; 1 mg/kg): did not change
- threshold of electrically induced ventricular fibrillation ([1]; 5 mg/kg): increased considerably this threshold
- value of increasing threshold compared with propranolol and oxprenolol ([1]; 5 mg/kg): higher
- effect on mesaton pressor effect [6]: did not change
- suppression of mesaton pressor effect [6]: 47%
- ED20 (arterial pressure [8]; Felis catus, iv, anesthetized cats, read-out: Dose resulting in lowering of arterial pressure by 20%, ED20): 1 ± 0.09 mg/kg
- minimal effective dose (arterial pressure [8]; Felis catus, iv, cats, read-out: dosage from which arterial pressure lowered): 0.1 mg/kg
- hypotensive effect compared with compound of the invention (arterial pressure [8]; from 0.1 mg/kg): less pronounced and prolonged effect
- nature of vasodilating effect (vascular regions [9]; dosages to block α-adrenoceptors): slight change of vasodilating nature
- most sensible vessels (vascular regions [9]; [10]): the vessels of skeletal muscles, testicles, spleen, kidneys and adrenals
- vasodilating properties (vascular regions [9]; [10]): exhibits vasodilating properties
- Arrhythmogenic dose of strophantin as compared with control: extrasystoles ([5]; 0.3 mg/kg i.v.): 101%
- Dose of strophantin as compared with control: ventricular fibrillation ([5]; 0.3 mg/kg i.v.): 113%
- Arrhythmogenic dose of strophantin as compared with control: extrasystoles ([5]; 1.0 mg/kg i.v.): 127%
- Dose of strophantin as compared with control: ventricular fibrillation ([5]; 1.0 mg/kg i.v.): 131%
- Lethal dose of strophantin as compared with control: animal death ([5]; 1.0 mg/kg i.v.): 128%
- Arrhythmogenic dose of strophantin as compared with control: extrasystoles ([5]; 3.0 mg/kg i.v.): 136%
- Dose of strophantin as compared with control: ventricular fibrillation ([5]; 3.0 mg/kg i.v.): 137%
- Lethal dose of strophantin as compared with control: animal death ([5]; 3.0 mg/kg i.v.): 132%
- ED50 (β2-adrenoceptor): 3.3 ± 0.2 mg/kg
